Literature values in patent US20140120162A1, “Bioadhesive Drug Delivery Compositions” (PEROSPHERE INC., priority 2011, published 2014).
Read-outs that look alike come from different tables or passages of the source.

Key:
[1] = not given; remark: listed apart in the source
[2] = not given; remark: listed apart in the source

In the case of “1-[(4R,5S)-5-[(2-aminoethyl)amino]-N^2-(10,12-dimethyl-1-oxotetradecyl)-4-hydroxy-L-ornithine]-5-[(3IRI)-3-hydroxy-L-ornithine]pneumocandin B0 diacetate (salt) [Caspofungin acetate]”, the “pH of a saturated aqueous solution” value is listed as “approximately 6.6”, the bioavailability ([1]; caspofungin) is listed as 0% and the “solubility in ethanol / alcohol” value [2] is listed as “slightly soluble”. The solubility in methanol [2] was “freely soluble” and the solubility in water [2] was “freely soluble”.

For CC(=O)O[C@H]1C(=O)[C@@]2(C)[C@H]([C@H](OC(=O)c3ccccc3)[C@]3(O)C[C@H](OC(=O)[C@H](O)[C@@H](NC(=O)c4ccccc4)c4ccccc4)C(C)=C1C3(C)C)[C@]1(OC(C)=O)CO[C@@H]1C[C@@H]2O [Paclitaxel], the solubility in water [2] is listed as “insoluble”.

For C#C[C@]1(O)CC[C@H]2[C@@H]3CCC4=Cc5oncc5C[C@]4(C)[C@H]3CC[C@@]21C [Danazol, 17a-Pregna-2,4-dien-20-yno[2,3-d]-isoxazol-17-ol], the half-life ([1]; danazol administered orally) is given as 4 to 5 h, the “time of peak concentrations” value ([1]; danazol administered orally) is given as ≤ 2 h and the “increase in plasma concentration on doubling the dose” value ([1]; danazol, doubling the dose) is given as 30-40%.

In the case of NCC1(CC(=O)O)CCCCC1 [Gabapentin], the bioavailability ([1]; gabapentin, at best, 900 mg dose given three times a day) is given as ≤ 60% and the metabolism in humans ([1]; humans) is given as “not appreciably metabolized”.

For C=CC[C@@H]1/C=C(\C)C[C@H](C)C[C@H](OC)[C@H]2O[C@@](O)(C(=O)C(=O)N3CCCC[C@H]3C(=O)O[C@H](/C(C)=C/[C@@H]3CC[C@@H](O)[C@H](OC)C3)[C@H](C)[C@@H](O)CC1=O)[C@H](C)C[C@@H]2OC [Tacrolimus], the absolute bioavailability ([1]; tacrolimus, 5 mg dose taken twice a day, oral) is given as “approximately 17%”, the solubility in chloroform ([2]; chloroform) is given as “very soluble” and the “solubility in ethanol / alcohol” value [2] is given as “freely soluble”. The solubility in methanol [2] was “very soluble” and the solubility in water [2] was “practically insoluble”.

In the case of NC(=O)N1c2ccccc2C=Cc2ccccc21 [Carbamazepine, 5H-dibenz[b,f]azepine-5-carboxamide], the solubility in acetone ([2]; acetone) is given as “soluble”, the “solubility in ethanol / alcohol” value [2] is given as “soluble” and the solubility in water [2] is given as “practically insoluble”.
